Among the data in patent US9546150B2, “Substituted quinazolin-4-ones for inhibiting ubiquitin specific protease 7” (HYBRIGENICS SA, priority 2011, dated 2017) are IC50 values, retold here.

pIC50: −log10 of the molar value.

Format in all cases: biochemical
One assay deals with T1, UCH-L1 (Homo sapiens, UniProt P09936).
T1 sequence (P09936 1-223): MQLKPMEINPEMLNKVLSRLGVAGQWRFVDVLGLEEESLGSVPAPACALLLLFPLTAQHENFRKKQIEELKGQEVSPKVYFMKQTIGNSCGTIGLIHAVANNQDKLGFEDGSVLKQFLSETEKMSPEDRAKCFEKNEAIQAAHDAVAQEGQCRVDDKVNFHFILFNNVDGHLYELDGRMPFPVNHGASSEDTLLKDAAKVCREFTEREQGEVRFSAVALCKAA
Briefly: UCH-L1 activity assay, Ub-AMC substrate. Particulars: UbAMC substrate 300 nM, UCH-L1 2.5 nM. The protocol:
UCH-L1 was diluted in USP buffer (50 mM Tris HCl; 0.5 mM EDTA; 5 mM DTT (Dithiothreitol); 0.01% Triton X-100; Bovine Serum Albumin 0.05 mg·ml^−1 pH7.6). Compounds stocks (100 mM) were stored at −20° C. in DMSO. Compounds were tested at different concentrations: from 200 μM to 91 nM.
(§1) Reactions were performed as duplicates in Black 384 well plates (small volume microplates; Greiner; 10 μl final reaction volume). The substrate concentration for UCH-L1 was 300 nM Ub-AMC (Boston Biochem). The concentration of the enzyme (UCH-L1) in specificity assays was 2.5 nM. The concentrations were determined in order to perform specificity assays under initial velocities at fixed substrate concentration. Compounds were pre-incubated with enzymes for 30 minutes at 25° C. Reactions were initiated by addition of substrate to the plates containing the enzymes (+/− compounds) diluted in assay buffer. Reactions were incubated for 60 minutes at 37° C. Reactions were stopped by adding acetic acid (100 mM final). Readings were performed on a Pherastar Fluorescent Reader (BMG). λ Emission 380 nm; λ Excitation=460 nm.

Assay [1] deals with T2, USP7 (Homo sapiens, UniProt Q93009). Briefly: GST-Ub52-Flag HTRF deubiquitinating enzyme assay, USP7. Particulars: GST-Ub52-Flag substrate, USP7 200 pM. Also noted: Full-length wild-type human USP7 and its catalytic mutant; His tag (pFastBac-HT vector) (N); made in house; host or cells: Spodoptera frugiperda Sf9 (or High Five) insect cells, baculovirus. The protocol: (§2) Bacmid DNA was prepared by an alkaline lysis procedure. The integrity of the bacmid minipreps and their orientation were checked by PCR, using generic and specific primers. Sf9 insect cells were cultured in InsectXpress medium (Cambrex) at 27° C. and transfected with the corresponding bacmid, using GeneShuttle 40 (Q-BIOgen). Viruses were recovered in the supernatant 72 h after transfection. Viruses were amplified by infecting insect cells (Sf9 or High Five cells; invitrogen) in 50 ml InsectXpress medium in a 150 cm^2 cell culture flask with 500 μl of the supernatant from transfected Sf9 cells. Following the second round of amplification, infected cells were recovered by rapid SDS lysis, boiled for 5 min at 100° C., sonicated briefly and centrifuged for 20 min at 14,000 g.
T2 sequence (Q93009 whole entry): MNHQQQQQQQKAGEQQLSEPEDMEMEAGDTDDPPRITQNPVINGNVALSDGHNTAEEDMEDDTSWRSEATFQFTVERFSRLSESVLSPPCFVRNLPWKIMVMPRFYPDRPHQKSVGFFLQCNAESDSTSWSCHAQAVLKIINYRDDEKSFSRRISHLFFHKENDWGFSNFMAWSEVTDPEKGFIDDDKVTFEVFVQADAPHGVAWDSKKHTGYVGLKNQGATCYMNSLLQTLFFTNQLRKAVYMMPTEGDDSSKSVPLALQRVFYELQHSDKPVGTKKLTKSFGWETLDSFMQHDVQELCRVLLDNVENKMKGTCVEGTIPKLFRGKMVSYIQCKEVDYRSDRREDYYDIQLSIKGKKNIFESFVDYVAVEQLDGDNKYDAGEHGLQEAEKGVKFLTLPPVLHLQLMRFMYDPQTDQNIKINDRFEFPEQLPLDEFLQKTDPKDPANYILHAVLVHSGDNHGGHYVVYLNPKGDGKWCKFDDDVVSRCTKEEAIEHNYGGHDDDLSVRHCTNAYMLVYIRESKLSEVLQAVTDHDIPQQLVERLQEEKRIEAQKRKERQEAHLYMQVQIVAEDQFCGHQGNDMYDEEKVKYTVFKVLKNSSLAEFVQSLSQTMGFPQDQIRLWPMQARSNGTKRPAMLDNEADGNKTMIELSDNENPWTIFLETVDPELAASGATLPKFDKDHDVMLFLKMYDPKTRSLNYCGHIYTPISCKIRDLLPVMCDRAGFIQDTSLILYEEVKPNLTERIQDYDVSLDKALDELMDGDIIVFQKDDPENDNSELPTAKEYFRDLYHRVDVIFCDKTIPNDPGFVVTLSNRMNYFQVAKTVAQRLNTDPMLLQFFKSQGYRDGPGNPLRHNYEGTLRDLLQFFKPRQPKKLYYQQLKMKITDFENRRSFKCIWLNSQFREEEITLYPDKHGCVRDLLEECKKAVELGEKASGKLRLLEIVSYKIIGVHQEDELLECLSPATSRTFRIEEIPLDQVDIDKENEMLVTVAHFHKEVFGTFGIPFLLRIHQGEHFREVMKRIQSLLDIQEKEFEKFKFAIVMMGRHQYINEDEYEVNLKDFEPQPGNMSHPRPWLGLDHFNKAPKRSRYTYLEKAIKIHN
Flow Through was recovered.

Assay [2] has as its target T2, USP7. Put plainly: USP7 activity assay, Ub-AMC substrate. Also noted: Full-length wild-type human USP7 and its catalytic mutant; His tag (pFastBac-HT vector) (N); made in house; host or cells: Spodoptera frugiperda Sf9 (or High Five) insect cells, baculovirus. Particulars: UbAMC substrate 300 nM, USP7 100 pM. The protocol: as §2
USP7 was diluted in USP buffer (50 mM Tris HCl; 0.5 mM EDTA (Ethylenediaminetetraacetic acid); 5 mM DTT; 0.01% Triton X-100; Bovine Serum Albumin 0.05 mg·ml^−1 pH7.6). Compounds stocks (10 mM) were stored at −20° C. in DMSO.
as §1, with “volumes” for “volume”, “volume). […]” for “volume).”, “concentrations” for “substrate concentration for UCH-L1 was 300 nM Ub-AMC (Boston Biochem). The concentration”, “(USP7)” for “(UCH-L1)”, “100 pM.” for “2.5 nM.”

`CC(Cc1cccs1)C(=O)N1CCC(O)(Cn2cnc3cc(Cl)ccc3c2=O)CC1` (stereo not shown) [Example 11, 7-chloro-3-({4-hydroxy-1-[2-methyl-3-(thiophen-2-yl)propanoyl]piperidin-4-yl}methyl)-3,4-dihydroquinazolin-4-one]: the negative-log IC50 (pIC50) is less than 3.70 against UCH-L1, 4.48 on USP7 [1] and 4.40 against USP7 [2].
Consider `CCC(CC)C(=O)N1CCC(O)(Cn2cnc3cc(Cl)ccc3c2=O)CC1` [Example 9, 7-chloro-3-{[1-(2-ethylbutanoyl)-4-hydroxypiperidin-4-yl]methyl}-3,4-dihydroquinazolin-4-one], for which the pIC50 on UCH-L1 is less than 3.70; at USP7 [1], 3.67; against USP7 [2], 3.81.
Take `O=C(CCc1cccs1)N1CCC(O)(Cn2cnc3ccccc3c2=O)CC1` [Example 12, 3-({4-hydroxy-1-[3-(thiophen-2-yl)propanoyl]piperidin-4-yl}methyl)-3,4-dihydroquinazolin-4-one]: the pIC50 at UCH-L1 was less than 3.70; against USP7 [1], 4.38; against USP7 [2] it was 4.15.
The corresponding values for `COc1cc2ncn(CC3(O)CCN(C(=O)C(C)C)CC3)c(=O)c2cc1OC` [Example 7, 3-{[4-hydroxy-1-(2-methylpropanoyl)piperidin-4-yl]methyl}-6,7-dimethoxy-3,4-dihydroquinazolin-4-one] are less than 3.70, 3.76 and 4.05.
On to `O=C(CCc1ccccc1)N1CCC(O)(Cn2cnc3cc(Cl)ccc3c2=O)CC1` [Example 2, 7-chloro-3-{[4-hydroxy-1-(3-phenylpropanoyl)piperidin-4-yl]methyl}-3,4-dihydroquinazolin-4-one], for which the negative logarithm of the IC50 (pIC50) at UCH-L1 is less than 3.70; against USP7 [1], 4.11; on USP7 [2] it was 4.48.
Regarding `O=C(CCC1CCCC1)N1CCC(O)(Cn2cnc3cc(Cl)ccc3c2=O)CC1` [Example 4, 7-chloro-3-{[1-(3-cyclopentylpropanoyl)-4-hydroxypiperidin-4-yl]methyl}-3,4-dihydroquinazolin-4-one], the negative logarithm of the IC50 (pIC50) is less than 3.70 against UCH-L1, 3.76 against USP7 [1] and 4.27 against USP7 [2].
Take `CC(Cc1ccccc1)C(=O)N1CCC(O)(Cn2cnc3cc(Cl)ccc3c2=O)CC1` (stereo not shown) [Example 14, 3-{[1-(2-benzylpropanoyl)-4-hydroxypiperidin-4-yl]methyl}-7-chloro-3,4-dihydroquinazolin-4-one]: the negative logarithm of the IC50 (pIC50) on UCH-L1 is less than 3.70; against USP7 [1], 4.54; at USP7 [2], 4.62.
For the molecule `CC(C)C(=O)N1CCC(O)(Cn2cnc3ccccc3c2=O)CC1` [Example 6, 3-{[4-hydroxy-1-(2-methylpropanoyl)piperidin-4-yl]methyl}-3,4-dihydroquinazolin-4-one], the values for the negative logarithm of the IC50 (pIC50) at UCH-L1, at USP7 [1] and against USP7 [2] were less than 3.70, less than 3.70 and 3.81, respectively.
On to `O=C(CCc1ccccc1)N1CCC(O)(Cn2cnc3ccccc3c2=O)CC1` [Example 1, 3-{[4-hydroxy-1-(3-phenylpropanoyl)piperidin-4-yl]methyl}-3,4-dihydroquinazolin-4-one], for which the pIC50 on UCH-L1 is less than 3.70; at USP7 [1] it was 4.13; on USP7 [2], 4.16.
Turning to `CC(Cc1ccccc1)C(=O)N1CCC(O)(Cn2cnc3ccccc3c2=O)CC1` (stereo not shown) [Example 13, 3-{[1-(2-benzylpropanoyl)-4-hydroxypiperidin-4-yl]methyl}-3,4-dihydroquinazolin-4-one], the negative logarithm of the IC50 (pIC50) at UCH-L1 was less than 3.70.
Consider `CC(Cc1cccs1)C(=O)N1CCC(O)(Cn2cnc3ccccc3c2=O)CC1` (stereo not shown) [Example 5, 3-({4-hydroxy-1-[2-methyl-3-(thiophen-2-yl)propanoyl]piperidin-4-yl}methyl)-3,4-dihydroquinazolin-4-one], for which the negative logarithm of the IC50 (pIC50) on UCH-L1 was less than 3.70; on USP7 [1] it was 4.44; against USP7 [2], 4.43.
Regarding `O=C(CCC1CCCC1)N1CCC(O)(Cn2cnc3ccccc3c2=O)CC1` [Example 3, 3-{[1-(3-cyclopentylpropanoyl)-4-hydroxypiperidin-4-yl]methyl}-3,4-dihydroquinazolin-4-one], the results for the pIC50 at UCH-L1, at USP7 [1] and against USP7 [2] were less than 3.70, 3.76 and 4.00, respectively.
Regarding `COc1ccccc1CCC(=O)N1CCC(O)(Cn2cnc3ccccc3c2=O)CC1` [Example 10, 3-({4-hydroxy-1-[3-(2-methoxyphenyl)propanoyl]piperidin-4-yl}methyl)-3,4-dihydroquinazolin-4-one], the figures for the negative-log IC50 (pIC50) against UCH-L1, against USP7 [1] and at USP7 [2] were less than 3.70, less than 3.70 and 3.58, respectively.
